Measurements published in PMC7380166, “How to Study the Metabolism of New Psychoactive Substances for the Purpose of Toxicological Screenings—A Follow-Up Study Comparing Pooled Human Liver S9, HepaRG Cells, and Zebrafish Larvae” (Frontiers in Chemistry, 2020).
Where two headings read alike, the source gives them in different places.

Tests used:
monooxygenases = details: initial monooxygenases activity screenings described elsewhere; ref Caspar et al., [2018a]; Wagmann et al., [2019b],[c]; cited from earlier work
zebrafish larvae [1] = experiment: Zebrafish larvae exposure, metabolite identification by LC-HRMS/MS; details: 24 h; for Absolute peak area, Zebrafish larvae [100 µM]: 100 µM parent NPS in medium; for Absolute peak area, Zebrafish larvae [100 µM] / Absolute peak area, Zebrafish larvae [25 μM]: larvae 4 dpf, larvae extract, one replicate of n = 3, n.d. = not detected; for Absolute peak area, Zebrafish larvae [25 μM]: 25 μM 4F-MDMB-BINACA in medium
[2] = cited from earlier work; for Detection in pHLS9 [25 µM]: n = 2, according to literature
zebrafish larvae [3] = experiment: In vivo maximum-tolerated concentration (MTC) study in zebrafish larvae; design: species or system zebrafish (Danio rerio); details: for Survival rate: 24-h treatment, fifteen larvae
Protocol: Internal protocols based on published standard methods (Westerfield, [2007]) were used to perform zebrafish husbandry and the maximum-tolerated concentration (MTC) testing was based on a previous study (Richter et al., [2019a]). Danieau's medium [17 mM NaCl, 2 mM KCl, 0.12 mM MgSO4, 1.8 mM Ca(NO3)2, 1.5 mM HEPES, pH 7.1–7.3, and 1.2 μM methylene blue] at 28°C was used to raise zebrafish larvae of the AB wild-type strain. For MTC testing, 96-well plates were used with 100 μl of medium and one larva per well. Drug exposition was started 4 dpf using 0, 0.01, 0.1, 1, 10, 50, or 100 μM final concentrations of 3,4-DMA-NBOMe, ephylone, 4F-MDMB-BINACA, 4F-PHP, or 1P-LSD, respectively. The drug exposure in the incubator at 28°C lasted 24 h. The final DMSO concentration was 1% (v/v) for all experiments. Monitoring of the larvae was done using a LEICA M205 FA stereo microscope (Leica Mikrosysteme Vertrieb GmbH, Wetzlar, Germany) to detect developmental defects and/or decreased survival rates. Fifteen larvae were used for each experiment.

HepaRG cells = experiment: Incubations with HepaRG cells, metabolite identification by LC-HRMS/MS; type: in vitro ADME, human; details: 24 h; for Absolute peak area, HepaRG [25 μM]: 25 μM parent NPS; for Absolute peak area, HepaRG [25 μM] / Absolute peak area, HepaRG [250 μM]: cell culture medium, one replicate of n = 3, n.d. = not detected; for Absolute peak area, HepaRG [250 μM]: 250 μM parent NPS
[4] = Incubations with pooled human liver S9 fraction (pHLS9), metabolite identification by LC-HRMS/MS; type: in vitro ADME; details: 25 μM 4F-MDMB-BINACA, one replicate of n = 2, n.d. = not detected; for Absolute peak area, pHLS9 1 h [25 μM]: 1 h incubation; for Absolute peak area, pHLS9 6 h [25 μM]: 6 h incubation
Protocol: According to published procedures (Richter et al., [2017b], [2019b]; Caspar et al., [2018b]; Wagmann et al., [2019b],[c]), the final incubation volume per reaction tube was 150 μl, with a final protein concentration of 2 mg/ml. The given concentrations represent final concentrations. A preincubation for 10 min at 37°C with UGT reaction mixture solution B (containing alamethicin, 25 μg/ml), MgCl2 (2.5 mM), NADP^+ (0.6 mM), isocitrate (2.5 mM), isocitrate dehydrogenase (0.8 U/ml), superoxide dismutase (100 U/ml), acetyl coenzyme A (0.1 mM), phosphate buffer (90 mM, pH 7.4), and pHLS9 (2 mg/ml) was done. Afterwards, UGT reaction mixture solution A (containing UDP glucuronic acid, 2.5 mM), PAPS (40 μM), SAM (1.2 mM), dithiothreitol (1 mM), and glutathione (10 mM) were added, as well as 25 μM 4F-MDMB-BINACA to start the reactions. The mixture was incubated for 360 min. Total amount of organic solvent in incubation mixtures was <2% (Chauret et al., [1998]). After 60 min, an aliquot of the reaction mixture (60 μl) was transferred in another reaction tube containing 20 μl of ice-cold acetonitrile to terminate the reactions. The remaining aliquot (90 μl) was incubated for an additional 300 min, and then the reactions were stopped by adding 30 μl of ice-cold acetonitrile. Thereafter, the reaction tubes were cooled at −20°C for 30 min prior to centrifugation at 18,407 × g for 2 min. The supernatants (50 μl) were transferred into autosampler vials, and 1 μl was injected onto the LC-HRMS/MS system. Control samples without pHLS9 and blank samples without substrate were prepared to confirm the absence of non-metabolically formed and interfering compounds, respectively. All incubations were performed in duplicate.
According to a previous study (Richter et al., [2019a]), a Thermo Fisher Scientific (TF, Dreieich, Germany) Dionex UltiMate 3000 Rapid Separation (RS) UHPLC system with a quaternary UltiMate 3000 RS pump and an UltiMate 3000 RS autosampler controlled by the TF Chromeleon software version 6.8 was used. The LC system was coupled to an Orbitrap-based TF Q-Exactive Plus equipped with a heated electrospray ionization II (HESI-II) source. Calibration was done prior to analysis with a Positive Cal Mix (Supelco, Bellefonte, PA, USA) at a flow rate of 3 μl/min using a syringe pump. The conditions of the LC system were as follows: TF Accucore PhenylHexyl column (100 × 2.1 mm, 2.6 μm particle size); gradient elution with 2 mM ammonium formate solution containing 0.1% (v/v) formic acid (eluent A) and 2 mM ammonium formate solution in acetonitrile/methanol (50:50, v/v) containing 0.1% (v/v) formic acid, and 1% (v/v) water (eluent B). […] The following gradient was used: 0–1.0 min hold 1% B, 1–10 min to 99% B, 10–11.5 min hold 99% B, 11.5–13.5 min hold 1% B. The HESI-II source conditions were as follows: ionization mode, positive; heater temperature, 320°C; ion transfer capillary temperature, 320°C; sheath gas, 60 arbitrary units (AU); auxiliary gas, 10 AU; spray voltage, 4.00 kV; and S-lens RF level, 50.0. Mass spectrometry experiments were performed using high-resolution (HR) full scan mode and a targeted MS^2 mode with an inclusion list for each NPS. The inclusion list contained m/z values of metabolites, which were likely to be formed for example hydroxy, oxo, carboxy, dealkyl, demethylenylated, and defluorinated metabolites (phase I) as well as sulfates and glucuronides (phase II) and combinations of them. Full scan settings were as follows: resolution, 35,000; automatic gain control (AGC) target, 3e6; maximum injection time (IT), 120 ms; scan ranges, 3,4-DMA-NBOMe m/z 100–700, ephylone m/z 200–600, 4F-MDMB-BINACA m/z 150–700, 4F-PHP m/z 200–600, and 1P-LSD m/z 250–700. The settings for the targeted MS^2 mode with the respective inclusion lists were as follows: resolution, 17,500; AGC target, 2e5; maximum IT, 250 ms; loop count, 5; isolation window, 1.0 m/z; stepped normalized collision energy (NCE), 17.5, 35, 52.5%; pick others, enabled. […]

[5] = human biosamples after intake of ephylone and 4F-PHP; ref Wagmann et al., [2019b]; cited from earlier work
[6] = 25 μM, ref Caspar et al., [2018b]
[7] = ephylone and metabolites, ref Wagmann et al., 2019a

| Compound | Absolute peak area, Zebrafish larvae [100 µM] (zebrafish larvae [1]) | Absolute peak area, HepaRG [25 μM] (HepaRG cells) | Absolute peak area, HepaRG [250 μM] (HepaRG cells) | Absolute peak area, pHLS9 1 h [25 μM] [4] | Absolute peak area, pHLS9 6 h [25 μM] [4] | Absolute peak area, Zebrafish larvae [25 μM] (zebrafish larvae [1]) | also measured |
| --- | --- | --- | --- | --- | --- | --- | --- |
| COc1ccccc1CNC(C)Cc1ccc(OC)c(OC)c1 (stereo not drawn) [3,4-DMA-NBOMe, 1-[3,4-dimethoxy]-N-[ortho-methoxybenzyl]propane-2-amine] | 6.22E+09 | 1.48E+09 | 1.03E+10 |  |  |  | Monooxygenases involved in metabolism (monooxygenases): CYP3A4 was described to be involved in the N-dealkylation and CYP2C19 and CYP2D6 in the O-demethylation and hydroxylation; Number of phase I metabolites detected, Zebrafish larvae (zebrafish larvae [1]; 100 μM in medium): 9; Number of phase II metabolites detected, Zebrafish larvae (zebrafish larvae [1]; 100 μM in medium): 7; Number of phase I metabolites detected, pHLS9 [25 μM] [2, 6]: 6 (Caspar et al., [2018b]); Number of phase II metabolites detected, pHLS9 [25 μM] [2, 6]: 5 (Caspar et al., [2018b]); Detection in pHLS9 [25 µM] ([2]; 3,4-DMA-NBOMe and metabolites, ref Caspar et al., 2018): +; Survival rate (zebrafish larvae [3]; 0.01 μM, larvae 4 dpf): 100%; Survival rate (zebrafish larvae [3]; 0.1 μM, larvae 4 dpf): 100%; Survival rate (zebrafish larvae [3]; 1 μM, larvae 4 dpf): 100%; Survival rate (zebrafish larvae [3]; 10 μM, larvae 4 dpf): 100%; Survival rate (zebrafish larvae [3]; 50 μM, larvae 4 dpf): 100%; Survival rate (zebrafish larvae [3]; 100 μM, larvae 4 dpf): 100%; Survival rates for all tested concentrations (zebrafish larvae [3]; 0.01 to 100 μM, larvae 4 dpf, 24 h): 100%; Concentration considered non-toxic for zebrafish larvae (4 dpf) (zebrafish larvae [3]; 24 h exposure via medium): 100 µM; Malformations (zebrafish larvae [3]; up to 100 μM, larvae 4 dpf, 24 h): no malformations; Number of phase I metabolites detected, HepaRG [25 μM] (HepaRG cells; 25 μM): 6; Number of phase II metabolites detected, HepaRG [25 μM] (HepaRG cells; 25 μM): 4; Number of phase I metabolites detected, HepaRG [250 μM] (HepaRG cells; 250 μM): 10; Number of phase II metabolites detected, HepaRG [250 μM] (HepaRG cells; 250 μM): 7 |
| CC(C)(C)[C@H](NC(=O)c1n[nH]c2ccccc12)C(=O)O [MB3] |  | 3.99E+05 | 6.92E+06 | 9.07E+05 | 1.27E+06 |  |  |
| CC1(C)COC(=O)C1NC(=O)c1nn(CCCCO)c2ccccc12 (stereo not drawn) [MB5] |  |  | 2.40E+05 |  | 1.26E+06 | 9.42E+05 |  |
| CC(C)(C)[C@H](NC(=O)c1nn(CCCCO)c2ccccc12)C(=O)O [MB7] |  | 1.25E+06 | 1.34E+07 |  | 1.91E+06 | 5.96E+04 |  |
| CC1(C)COC(=O)C1NC(=O)c1nn(CCCC(=O)O)c2ccccc12 (stereo not drawn) [MB9] |  |  |  |  | 1.57E+05 | 2.53E+06 |  |
| CC(C)(CO)C(NC(=O)c1nn(CCCCF)c2ccccc12)C(=O)O (stereo not drawn) [MB13] |  |  | 3.13E+07 | 7.30E+03 | 6.42E+05 | 4.57E+05 |  |
| COC(=O)[C@@H](NC(=O)c1nn(CCCC(=O)O)c2ccccc12)C(C)(C)C [MB15] |  | 1.15E+04 | 8.00E+06 | 2.16E+06 | 3.34E+06 | 2.60E+07 |  |
| CCCC(N)C(=O)c1ccc2c(c1)OCO2 (stereo not drawn) [ME1] | 4.12E+06 | 4.14E+06 | 2.21E+07 |  |  |  | Detection in pHLS9 [25 µM] [2, 7]: +; Signals with the highest abundance in human plasma and/or urine [5]: highest ephylone-related signals |
| CCCC(NCC)C(=O)c1ccc(O)c(O)c1 (stereo not drawn) [ME2] | 4.44E+06 | 1.72E+05 | 6.37E+05 |  |  |  | Detection in pHLS9 [25 µM] [2, 7]: +; Signals with the highest abundance in human plasma and/or urine [5]: highest ephylone-related signals |
